“Also recorded” adds a separate entry of the source.
Legend:
[1] = test system: embryonic zebrafish; test: Blinded re-screen of top 10 prioritized ChemBridge compounds for developmental phenotypes in embryonic zebrafish; assay type: in vivo; conditions: for Phenotype Observed: embryonic zebrafish, 10 uM introduced at 5 hpf, scored at 24 and 48 hpf, blinded, in duplicate
Method: Male and female wild-type (AB) fish were housed and embryos bred for screening using standard protocols. […] 10 mM compound stocks were diluted to 2 mM using DMSO, and 1 μL of each diluted compound solution was introduced into individual wells at 5 hours post fertilization (hpf) using a manual multichannel pipettor (10 uM final concentration). The first and last column of each plate received only DMSO, serving as negative control wells.
Embryos were screened for a series of developmental phenotypes at both 24 and 48 hpf using standard light microscopy. […] Only those wells where at least two of the three embryos were dead or delayed were annotated as a hit for 24 hour death or delay/arrest, respectively.
Resulting scores for each phenotype were used to rank the over 900,000 compounds. Enrichment for compounds with high (>0.95) similarity to known therapeutics (defined using Tanimoto Coefficient of molecular fingerprints) was calculated for each of the 6 ranked lists using gene set enrichment analysis^69. The top 10 highest-ranking compounds from each of the 6 lists were screened as described above, blinded and in duplicate.

[2] = test system: zebrafish embryos; test: Rescue of developmental delay/arrest phenotype by phospholipase products; assay type: in vivo; conditions: for rescue of the developmental delay/arrest phenotype of DA5: zebrafish embryos treated with DA5
From the text: FIG. 15 (A)-(B): Effect of timing and injection on DA5 rescue. Rescue of the DA5 phenotype was compared using introduction of phosphatidic acid (PAC) in-well, versus injected into the embryo at the 1-cell developmental stage (A; DA5 introduced at 5 hpf).
Given the known role of anoxia in cancer cell proliferation, we investigated the potential of the DA compounds to inhibit cancer cell growth in cell culture. We found a significant reduction in the proliferation of immortalized cells upon introduction of all DA compounds (FIG. 16).

Molecule: COc1ccccc1Nc1nc(-c2ccncc2)cs1 [ChemBridge ID 5745969]
- Hit (predicted phenotype observed) ([1]; Prediction: Dead): No
- Phenotype Observed [1]: Multiple severe phenotypes

Molecule: Br.COc1ccccc1Nc1nc(-c2sc(C)nc2C)cs1 [ChemBridge ID 5931065]
- Hit (predicted phenotype observed) ([1]; Prediction: Dead): Yes
- Phenotype Observed [1]: Dead (48 h)

Molecule: CC(NCc1ccccc1O)C12CC3CC(CC(C3)C1)C2 (stereo not drawn) [ChemBridge ID 6108849]
- Hit (predicted phenotype observed) ([1]; Prediction: Pigmentation): Yes
- Hit (predicted phenotype observed) ([1]; Prediction: Pigmentation Only): Yes
- Phenotype Observed [1]: No pigmentation, dying

Molecule: O=C(Nc1ccccc1Cl)N1CCN(c2ccccc2F)CC1 [ChemBridge ID 7008803]
- Hit (predicted phenotype observed) ([1]; Prediction: Cranial Edema): No
- Phenotype Observed [1]: slight discoloration

Molecule: COCC1CCN(C(=O)c2cc(COc3ccc4ncccc4c3)on2)CC1 [ChemBridge ID 13197878]
- Hit (predicted phenotype observed) ([1]; Prediction: Delay/Arrest): Yes
- Phenotype Observed [1]: Bud stage at 24 h, dead at 48 h

Molecule: CCOC(=O)C1(CCc2ccccc2)CCCN(Cc2nccn2CC)C1 (stereo not drawn) [ChemBridge ID 13300080]
- Hit (predicted phenotype observed) ([1]; Prediction: Pigmentation): Yes
- Hit (predicted phenotype observed) ([1]; Prediction: Pigmentation Only): Yes
- Phenotype Observed [1]: No pigmentation, dying; also recorded: No pigmentation, slow heart beat

Molecule: CN(CC1CCN(CCc2ccc(Cl)cc2)CC1)C(=O)c1ccccc1-n1cccn1 [ChemBridge ID 18069546]
- Hit (predicted phenotype observed) ([1]; Prediction: Cardiac): Yes
- Phenotype Observed [1]: Pericardial edema, no heart beat

Molecule: COC(=O)c1ccc(-c2noc(CN(Cc3ccncc3)CC3CCCO3)n2)cc1 (stereo not drawn) [ChemBridge ID 18809966]
- Hit (predicted phenotype observed) ([1]; Prediction: Body Axis): Yes
- Phenotype Observed [1]: Small body (appear dorsalized)

Molecule: O=C(c1cc(COc2ccc3ncccc3c2)on1)N1C[C@@H]2C[C@H]3C[C@@H](C2)C[C@@H]1C3 [ChemBridge ID 19759648]
- Hit (predicted phenotype observed) ([1]; Prediction: Delay/Arrest): Yes
- Phenotype Observed [1]: Bud stage at 24 h, dead at 48 h

Molecule: COC(=O)c1ccc(-c2nc(CN3CCCCC3c3cccc(OC)c3)c(C)o2)cc1 (stereo not drawn) [ChemBridge ID 20494296]
- Hit (predicted phenotype observed) ([1]; Prediction: Body Axis): Yes
- Phenotype Observed [1]: Short, no heads

Molecule: O=C(c1cc(COc2ccc3ncccc3c2)on1)N1CCCC(OCc2ccccn2)C1 (stereo not drawn) [ChemBridge ID 21652166]
- Hit (predicted phenotype observed) ([1]; Prediction: Delay/Arrest): Yes
- Phenotype Observed [1]: 5-10 somite stage at 48 h

Molecule: COC(=O)c1ccc(-c2nc(CN3CCCCC3c3nc4cc(F)ccc4[nH]3)c(C)o2)cc1 (stereo not drawn) [ChemBridge ID 22685803]
- Hit (predicted phenotype observed) ([1]; Prediction: Body Axis): Yes
- Phenotype Observed [1]: Most dead, remaining have small bodies

Molecule: CCOC(=O)C1(CCOc2ccccc2)CCN(Cc2cc(OC)cc(OC)c2)CC1 [ChemBridge ID 23490385]
- Hit (predicted phenotype observed) ([1]; Prediction: Cardiac): Yes
- Hit (predicted phenotype observed) ([1]; Prediction: Cranial Edema): No
- Phenotype Observed [1]: Pericardial edema, no heart beat

Molecule: CSc1ccc(-c2nc(CN3CCCCC3c3nccn3C)c(C)o2)cc1 (stereo not drawn) [ChemBridge ID 23702187]
- Hit (predicted phenotype observed) ([1]; Prediction: Pigmentation): Yes
- Phenotype Observed [1]: No pigmentation, cranial edema, slow heart beat

Molecule: CN(CC1CCN(CCc2ccc(F)cc2)CC1)C(=O)c1ccsc1 [ChemBridge ID 26410496]
- Hit (predicted phenotype observed) ([1]; Prediction: Cardiac): Yes
- Phenotype Observed [1]: Pericardial edema, no heart beat

Molecule: COC(=O)c1ccc(-c2nc(CN(C)C(C)c3nc(C)cs3)c(C)o2)cc1 (stereo not drawn) [ChemBridge ID 34105851]
- Hit (predicted phenotype observed) ([1]; Prediction: Body Axis): Yes
- Phenotype Observed [1]: Small body (no head)

Molecule: OCCC1CN(Cc2ccc(F)cc2F)CCN1CCCc1ccccc1 (stereo not drawn) [ChemBridge ID 35983174]
- Hit (predicted phenotype observed) ([1]; Prediction: Cardiac): Yes
- Hit (predicted phenotype observed) ([1]; Prediction: Cardiac Only): Yes
- Phenotype Observed [1]: Pericardial edema, no heart beat

Molecule: CN(CC1CCN(CCc2ccc(Cl)cc2)CC1)C(=O)C1=CCCCC1 [ChemBridge ID 37690524]
- Hit (predicted phenotype observed) ([1]; Prediction: Cardiac): Yes
- Phenotype Observed [1]: Pericardial edema, no heart beat

Molecule: CCOC(=O)C1(Cc2cccc(OC)c2)CCCN(Cc2nccn2CC)C1 (stereo not drawn) [ChemBridge ID 38433186]
- Hit (predicted phenotype observed) ([1]; Prediction: Pigmentation): Yes
- Hit (predicted phenotype observed) ([1]; Prediction: Pigmentation Only): Yes
- Phenotype Observed [1]: No pigmentation

Molecule: CCOC(=O)C1(CCOc2ccccc2)CCN(Cc2ccc(OC)cc2)CC1 [ChemBridge ID 38617825]
- Hit (predicted phenotype observed) ([1]; Prediction: Cardiac): No
- Phenotype Observed [1]: Dead (48 h)

Molecule: CN(CC1CCN(CCc2ccc(Cl)cc2)CC1)C(=O)c1cccc(N(C)C)c1 [ChemBridge ID 39911836]
- Hit (predicted phenotype observed) ([1]; Prediction: Cardiac): Yes
- Phenotype Observed [1]: Pericardial edema, no heart beat

Molecule: C[C@@H]1CN(C(=O)c2cc(COc3ccc4ncccc4c3)on2)C[C@H](C)O1 [ChemBridge ID 44889923]
- Hit (predicted phenotype observed) ([1]; Prediction: Delay/Arrest): Yes
- Phenotype Observed [1]: Look 24 h at 48 h

Molecule: O=C(c1cc(COc2ccc3ncccc3c2)on1)N1CCC(N2CCSCC2)CC1 [ChemBridge ID 45187255]
- Hit (predicted phenotype observed) ([1]; Prediction: Delay/Arrest): Yes
- Phenotype Observed [1]: Bud stage at 24 h, 5-18 somites at 48 h

Molecule: O=C(c1cc(COc2ccc3ncccc3c2)on1)N1C[C@H]2CCC[C@H]1C2 [ChemBridge ID 54305680]
- Hit (predicted phenotype observed) ([1]; Prediction: Delay/Arrest): Yes
- Phenotype Observed [1]: Bud stage at 24 h, dead at 48 h

Molecule: COC(=O)c1ccc(-c2noc(CN(CCO)Cc3cccs3)n2)cc1 [ChemBridge ID 56638922]
- Hit (predicted phenotype observed) ([1]; Prediction: Body Axis): Yes
- Phenotype Observed [1]: Small heads, short bodies

Molecule: CN(CC1CCN(CCc2ccc(Cl)cc2)CC1)C(=O)c1ccsc1 [ChemBridge ID 59314184]
- Hit (predicted phenotype observed) ([1]; Prediction: Cardiac): Yes
- Phenotype Observed [1]: Pericardial edema, no heart beat

Molecule: CCOC(=O)C1(C/C=C/c2ccccc2)CCCN(Cc2nccn2CC)C1 (stereo not drawn) [ChemBridge ID 69904708]
- Hit (predicted phenotype observed) ([1]; Prediction: Pigmentation): Yes
- Hit (predicted phenotype observed) ([1]; Prediction: Pigmentation Only): Yes
- Phenotype Observed [1]: No pigmentation, cranial edema, slow heart beat

Molecule: COC(=O)c1ccc(-c2noc(CN(CCO)Cc3ccccc3)n2)cc1 [ChemBridge ID 86606851]
- Hit (predicted phenotype observed) ([1]; Prediction: Body Axis): Yes
- Phenotype Observed [1]: Some dead, alive have no head, necrotic

Molecule: CCOC(=O)C1(CCOc2ccccc2)CCN(Cc2ccccc2OC)CC1 [ChemBridge ID 87194463]
- Hit (predicted phenotype observed) ([1]; Prediction: Cardiac): No
- Phenotype Observed [1]: Dead (48 h)

Molecule: Cc1oc(-c2cccc(C(F)(F)F)c2)nc1CN1CCCCC1c1nccn1C (stereo not drawn) [ChemBridge ID 91866361]
- Hit (predicted phenotype observed) ([1]; Prediction: Pigmentation): Yes
- Phenotype Observed [1]: No pigmentation, cranial edema, slow heart beat

Molecule: CCOC(=O)C1(Cc2ccccc2)CCCN(Cc2nccn2CC)C1 (stereo not drawn) [ChemBridge ID 98334673]
- Hit (predicted phenotype observed) ([1]; Prediction: Pigmentation): Yes
- Hit (predicted phenotype observed) ([1]; Prediction: Pigmentation Only): Yes
- Phenotype Observed [1]: No pigmentation, cranial edema

Molecule: O=P(O)(O)O[C@@H]1[C@H](O)[C@H](O)[C@@H](OP(=O)(O)O)[C@H](OP(=O)(O)O)[C@H]1O [D-myo-Inositol-1,4,5-triphosphate]
- rescue of the developmental delay/arrest phenotype of DA5 [2]: did not observe rescue

Molecule: Phosphatidic acid
- rescue of the DA5 phenotype ([2]; DA5 introduced at 5 hpf, PAC in-well at 24 hpf, phenotypes surveyed at 36 hpf): rescue still observed
- rescue of the DA5 phenotype ([2]; upon injection and introduction into embryonic medium, multiple time points after DA5): rescued
- rescue of the developmental delay/arrest phenotype of DA5 [2]: rescued
- rescue of the developmental delay/arrest phenotype of DA5 ([2]; listed as phosphatidic acid): rescue
- rescue of the phenotype of oligomycin A ([2]; zebrafish embryos treated with oligomycin A): did not rescue

— patent US12605374B2, “Methods for drug screening and compositions useful for the inhibition of cell proliferation and/or cell survival” (The Brigham and Women's Hospital, Inc., priority 2019, dated 2026)
